Experiments:
[1] = target: T1, human CB1 receptor (Homo sapiens, UniProt P21554); assay: GTPγS binding on membranes of CHO cells expressing the human CB1 receptor; format: biochemical; parameters: expressed in transfected cells; host or cells: CHO cells (G418 selection); membranes; details: CHO cell membranes, [35S] GTPγS
Method: Membrane preparation: CHO cells expressing the human CB1 receptor were grown to 80% confluence in Ham's F-12 Nutrient Medium (Invitrogen) containing 10% fetal bovine serum (Invitrogen), 1% pen/strep (Invitrogen), 1% Nonessential amino acids (Invitrogen) and 500 μg/ml G418 (Invitrogen). Cells were released from flasks using Cell Dissociation Buffer (Invitrogen). Cells were pelleted by centrifugation at 500×G for 5 minutes. Membranes were prepared by resuspending cells in ice cold Assay Buffer (25 mM Tris pH 7.4, 5 mM EDTA, 5 mM EGTA, Complete Protease Inhibitor (Roche)). Cells were lysed with 12 strokes of a dounce homogenizer. Unlysed cells were pelleted by centrifugation at 500×G for 5 minutes. Membranes were pelleted by centrifugation at 25,000×G for 30 minutes. Membranes were resuspended in TEE, dounced 12 strokes, and pelleted a second time at 25,000×G for 30 minutes. Membrane pellet was resuspended in 50 mM Tris pH 7.4, 100 mM NaCl, 3 mM MgCl2, 0.2 mM EGTA, Complete Protease Inhibitor (Roche). Protein concentration was determined using the Micro-BCA Protein Assay Kit (Pierce) using BSA as a standard. Membranes were frozen and stored at −80 degrees Celsius until use. GTPγS Binding: 40 μl of test compound was incubated with 20 μl of [^35S] GTPγS (Perkin Elmer) (1250 Ci/millimole) and 140 μl of membrane homogenate (5 ug/well) in polypropylene 96-well plates (Corning). Final reaction conditions were 50 mM Tris pH 7.4, 100 mM NaCl, 3 mM […], 0.2 mM EGTA, 0.04% BSA. After incubation at 37 degrees Celsius for 45 minutes reactions were harvested by vacuum filtration through Unifilter GF/B-96 filters (Perkin Elmer) using a FilterMate Plate Harvester (Perkin Elmer). Filters were rinsed 4 times with ice cold 50 mM Tris pH 7.4, 3 mM MgCl2, 0.2 mM EGTA and dried at 50 degrees Celsius for at least 30 minutes. 40 μl of Microscint-20 (Perkin Elmer) was added per well, and plates were counted using a Top-Count Microplate Scintillation Counter (Perkin Elmer). Binding data were analyzed and EC50 values were calculated using Graph Pad Prism 4.0 Software.

[2] = target: T1, human CB1 receptor; assay: Human CB1 receptor binding, [3H] CP-55,940 displacement on HEK cell membranes; parameters: expressed in transfected cells; membranes; details: [3H] CP-55,940 500 pM
Method: The Human CB1 receptor binding affinity and other biological activities of the compounds of this invention are determined by the following procedures.
Membrane preparation: Human Embryonic Kidney (HEK) Cells expressing the human CB1 receptor under transcriptional regulation of a tetracycline inducible promoter were grown in Dulbecco's Modified Essential Medium with sodium pyruvate (Invitrogen, Carlsbad, Calif.) containing 10% tetracycline free fetal bovine serum (Clonetech, Mountain View, Calif.) 100 μg/ml hygromycin (Calbiochem, San Diego, Calif.), 5 μg/ml blasticidin (Invitrogen). CB1 receptor expression was induced by addition of 1 μg/ml doxycycline (Calbiochem) and incubation for an additional 24 hours. Cells were released from flasks using Cell Dissociation Buffer (Invitrogen). Cells were pelleted by centrifugation at 500×G for 5 minutes. Membranes were prepared by resuspending cells in ice cold TEE Buffer (25 mM Tris pH 7.4, 5 mM EDTA, 5 mM EGTA, Complete Protease Inhibitor (Roche, Basel, Switzerland)). Cells were lysed with 12 strokes of a dounce homogenizer. Unlysed cells were pelleted by centrifugation at 500×G for 5 minutes. Membranes were pelleted by centrifugation at 25,000×G for 30 minutes. Membranes were resuspended in TEE, dounced 12 strokes, and pelleted a second time at 25,000×G for 30 minutes. Membrane pellet was resuspended in 50 mM Tris pH 7.4, 100 mM NaCl, 3 mM MgCl2, 0.2 mM EGTA, Complete Protease Inhibitor (Roche). Protein concentration was determined using the Micro-BCA Protein Assay Kit (Pierce, Rockford, Ill.) using BSA as a standard. Membranes were quick frozen and stored at −80 degrees Celsius until use. Binding experiments: 50 μl of test compound was incubated with 50 μl, of [^3H] CP-55,940 (Perkin Elmer, Boston, Mass.) (final concentration 500 pM) and 150 μl of membrane homogenate (1 μg/well) in polypropylene 96-well plates (Corning, Acton, Mass.). Final reaction conditions were 50 mM Tris pH 7.4, 100 mM NaCl, 3 mM MgCl2, 0.2 mM EGTA, 0.04% BSA. Nonspecific binding was determined by incubation with 50 μM WIN-55,212-2 (Tocris, Ellisville, Mo.). After incubation at room temperature for 60 minutes reactions were harvested by vacuum filtration through Unifilter GF/B-96 filters (Perkin Elmer) that had been presoaked in assay buffer containing 0.5% BSA (Sigma, St. Louis, Mo.) using a FilterMate Plate Harvester (Perkin Elmer). Filters were rinsed 4 times with 50 mM Tris pH 7.4, 0.025% Tween20 and dried at 50 degrees Celsius for at least 30 minutes. 40 μl of Microscint-20 (Perkin Elmer) was added per well, and plates were counted using a Top-Count Microplate Scintillation Counter (Perkin Elmer). Binding data were analyzed and EC50 and Ki values calculated using Graph Pad Prism 4.0 Software.

T1 sequence (P21554 whole entry): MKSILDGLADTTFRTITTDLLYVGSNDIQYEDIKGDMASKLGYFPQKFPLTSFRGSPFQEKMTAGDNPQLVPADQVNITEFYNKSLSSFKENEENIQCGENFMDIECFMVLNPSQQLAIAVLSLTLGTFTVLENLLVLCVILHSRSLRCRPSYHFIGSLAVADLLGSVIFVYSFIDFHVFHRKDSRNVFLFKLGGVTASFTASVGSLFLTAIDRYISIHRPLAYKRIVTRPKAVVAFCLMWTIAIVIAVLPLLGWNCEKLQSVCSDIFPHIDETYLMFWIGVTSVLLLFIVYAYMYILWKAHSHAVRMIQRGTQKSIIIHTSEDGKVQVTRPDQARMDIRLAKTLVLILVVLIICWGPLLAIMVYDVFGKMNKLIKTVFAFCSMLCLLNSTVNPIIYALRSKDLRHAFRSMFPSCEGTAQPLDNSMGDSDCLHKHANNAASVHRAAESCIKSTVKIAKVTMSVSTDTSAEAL

Work on CC(C)(C)[C@H](NC(=O)n1c(=O)n(CCCC(F)(F)F)c2ccccc21)C(N)=O [Example 293] yielded an EC50 [1] of 32.4 nM and a Ki [2] of 1.45 nM.
In the case of CC(C)(C)[C@H](NC(=O)n1c(=O)n(CC2CCOCC2)c2ccccc21)C(=O)NC1CC1 [Example 298], the EC50 [1] is reported as 88.6 nM and the Ki [2] is reported as 5.27 nM.
CC(C)(C)[C@H](NC(=O)n1c(=O)n(CC2CCOCC2)c2ccccc21)C(=O)NC1CCC1 [Example 300] gave an EC50 [1] of 260 nM and a Ki [2] of 41 nM.
In the case of CC(C)(C)[C@@H](CO)NC(=O)n1c(=O)n(CC2CCOCC2)c2cc(F)ccc21 [Example 301], the EC50 [1] is reported as 268 nM and the Ki [2] is reported as 5.25 nM.
For CC(C)(C)[C@H](NC(=O)n1c(=O)n(CC2CCOCC2)c2ccccc21)C(=O)NCC(N)=O [Example 302], the EC50 [1] was 407 nM and the Ki [2] was 82.3 nM.
CNC(=O)[C@@H](NC(=O)n1c(=O)n(CC2CCOCC2)c2ccccc21)C(C)(C)C [Example 303] gave an EC50 [1] of 36.6 nM and a Ki [2] of 5.71 nM.
CC(C)(C)[C@H](NC(=O)n1c(=O)n(CC2CC=C(F)CC2)c2ccccc21)C(N)=O (stereo partly drawn) [Example 304] was tested, and the EC50 [1] was 0.87 nM and the Ki [2] was 0.15 nM.
In the case of CC(C)(C)[C@H](NC(=O)n1c(=O)n(CC2CCC(F)(F)CC2)c2ccccc21)C(N)=O [Example 306], the EC50 [1] is reported as 3.45 nM and the Ki [2] is reported as 0.31 nM.
CC(C)(C)[C@H](NC(=O)n1c(=O)n(CC2CCCCC2)c2cc(Br)ccc21)C(N)=O [Example 307] was tested, and the EC50 [1] was 49.5 nM and the Ki [2] was 1.85 nM.
Compound CC(C)(C)[C@@H](CO)NC(=O)n1c(=O)n(CC2CCCCC2)c2cc(Br)ccc21 [Example 308] has an EC50 [1] of 20.5 nM and a Ki [2] of 5.38 nM.
Compound CC(C)(C)[C@H](NC(=O)n1c(=O)n(CC2CCOCC2)c2cc(F)ccc21)C(=O)NC1CC1 [Example 310] has an EC50 [1] of 173 nM and a Ki [2] of 30.2 nM.
In the case of Cc1cc(CNC(=O)n2c(=O)n(CC3CCOCC3)c3ccccc32)c(C)o1 [Example 311], the EC50 [1] is reported as 57 nM and the Ki [2] is reported as 2.03 nM.
Cc1cc(CNC(=O)n2c(=O)n(CC3CCOCC3)c3ccccc32)no1 [Example 312] gave an EC50 [1] of 380 nM and a Ki [2] of 69.5 nM.
Compound CC(C)(C)[C@H](NC(=O)n1c(=O)n(CC2CCOCC2)c2ccccc21)C(=O)NCCO [Example 317] has an EC50 [1] of 83.6 nM and a Ki [2] of 12 nM.
With CC(C)(C)[C@H](NC(=O)n1c(=O)n(CC2CCOCC2)c2ccccc21)C(=O)NCCCO [Example 318] the EC50 [1] was 230 nM and the Ki [2] was 23.9 nM.
Work on CC(C)(C)[C@H](NC(=O)n1c(=O)n(CC2CCOCC2)c2ccccc21)c1nnc(N)o1 [Example 319] yielded an EC50 [1] of 96.3 nM and a Ki [2] of 5.17 nM.
For Cc1cc(CNC(=O)n2c(=O)n(CC3CCOCC3)c3ccccc32)c(C(F)(F)F)o1 [Example 320], the EC50 [1] was 98.6 nM and the Ki [2] was 4.2 nM.
CCc1nc(CNC(=O)n2c(=O)n(CC3CCOCC3)c3ccccc32)no1 [Example 327] showed an EC50 [1] greater than 10000 nM and a Ki [2] of 36 nM.
Work on CCc1nc(CNC(=O)n2c(=O)n(CC3CCOCC3)c3ccccc32)cs1 [Example 328] yielded an EC50 [1] of 167 nM and a Ki [2] of 5.94 nM.
With O=C(NCc1ccoc1)n1c(=O)n(CC2CCOCC2)c2ccccc21 [Example 329] the EC50 [1] was 606 nM and the Ki [2] was 28 nM.
Cc1nc(C)c(CNC(=O)n2c(=O)n(CC3CCOCC3)c3ccccc32)s1 [Example 337] was tested, and the EC50 [1] was 6490 nM and the Ki [2] was 12.1 nM.
Cc1nc(CNC(=O)n2c(=O)n(CC3CCOCC3)c3ccccc32)cs1 [Example 341] gave an EC50 [1] of 355 nM and a Ki [2] of 24.7 nM.
Compound CC(C)(C)[C@H](NC(=O)n1c(=O)n(CC2CCOCC2)c2ccccc21)C(=O)NC[C@H](O)CO [Example 345] has an EC50 [1] of 1150 nM and a Ki [2] of 52.8 nM.
Work on CC(C)(C)[C@H](NC(=O)n1c(=O)n(CC2CCOCC2)c2cc(F)ccc21)c1nnc(N)o1 [Example 347] yielded an EC50 [1] of 229 nM and a Ki [2] of 9.5 nM.
Work on CC(C)(C)[C@H](NC(=O)n1c(=O)n(Cc2ccccc2)c2ccccc21)C(N)=O [Example 348] yielded an EC50 [1] of 60.1 nM and a Ki [2] of 5.64 nM.
Work on Cc1nc(C(F)(F)F)c(CNC(=O)n2c(=O)n(CC3CCOCC3)c3ccccc32)s1 [Example 349] yielded an EC50 [1] of 157 nM and a Ki [2] of 19.1 nM.
Cc1nc(C(C)NC(=O)n2c(=O)n(CC3CCOCC3)c3ccccc32)cs1 (stereo not drawn) [Example 350] was tested, and the EC50 [1] was 131 nM and the Ki [2] was 13.4 nM.

— patent US20090298811A1, “BENZIMIDAZOLONE DERIVATIVES” (Pfizer Inc, priority 2006, published 2009)
